In general, viability, T/C refers to the result in the treated group divided by that in the control group, in per cent.

The values that follow come from PubChem BioAssay AID2060611 (Molecular Pharmacology Branch, DTP, NCI, 2025).

Structures are written as SMILES.
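Note: spheroids exposed to agents for seven days before readout; 100% = DMSO vehicle control viability.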

The first test concerns 628569-122-R-J1-PDC complex spheroid viability. The experiment in a line: Anticancer human tumor 628569-122-R-J1-PDC patient-derived head and neck squamous carcinoma cell line growth inhibition [CLK]. Particulars: second compound 0.0316 µM; first compound 1 µM; active compounds read low. The method, boiled down: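 Multi-cell-type spheroids combined patient-derived tumor cells with HUVEC endothelial cells and human mesenchymal stem cells. Paired agents were dosed in half-log steps down from about clinical Cmax, or from 10 microM where Cmax was unknown.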
On to `O=c1[nH]cc(F)c(=O)[nH]1` + CN1CCN(c2cc(C(=O)Nc3cc4cc(-c5cnn(C)c5)ccc4cn3)ccn2)CC1, for which the viability, T/C is 102%.

Turning to `Nc1ccccc1NC(=O)c1ccc(CNC(=O)OCc2cccnc2)cc1` + CN1CCN(c2cc(C(=O)Nc3cc4cc(-c5cnn(C)c5)ccc4cn3)ccn2)CC1, the viability, T/C is 162%.

For `Nc1ccn(C2OC(CO)C(O)C2(F)F)c(=O)n1` (centres undefined) + CNC(=O)c1ccc(Nc2nc(OC3CCCC3)c3c(-c4ccc5nc(C)oc5c4)c[nH]c3n2)c(OC)c1, the viability, T/C is 40.7%.

On to `O=C(c1cc(Cc2n[nH]c(=O)c3ccccc23)ccc1F)N1CCN(C(=O)C2CC2)CC1` + CN1CCN(c2cc(C(=O)Nc3cc4cc(-c5cnn(C)c5)ccc4cn3)ccn2)CC1, for which the viability, T/C was 83.3%.

Still in this test, the particulars now being: second compound 0.0316 µM; first compound 3.16 µM; active compounds read low.
On to `O=c1[nH]cc(F)c(=O)[nH]1` + CN1CCN(c2cc(C(=O)Nc3cc4cc(-c5cnn(C)c5)ccc4cn3)ccn2)CC1, for which the viability, T/C was 88.8%.

Consider `Nc1ccccc1NC(=O)c1ccc(CNC(=O)OCc2cccnc2)cc1` + CN1CCN(c2cc(C(=O)Nc3cc4cc(-c5cnn(C)c5)ccc4cn3)ccn2)CC1, for which the viability, T/C is 153%.

On to `Nc1ccn(C2OC(CO)C(O)C2(F)F)c(=O)n1` (centres undefined) + CNC(=O)c1ccc(Nc2nc(OC3CCCC3)c3c(-c4ccc5nc(C)oc5c4)c[nH]c3n2)c(OC)c1, for which the viability, T/C is 50.8%.

On to `O=C(c1cc(Cc2n[nH]c(=O)c3ccccc23)ccc1F)N1CCN(C(=O)C2CC2)CC1` + CN1CCN(c2cc(C(=O)Nc3cc4cc(-c5cnn(C)c5)ccc4cn3)ccn2)CC1, for which the viability, T/C is 56.8%.

The same test, now with this note: second compound 0.0316 µM; first compound 10 µM; active compounds read low.
For the molecule `O=c1[nH]cc(F)c(=O)[nH]1` + CN1CCN(c2cc(C(=O)Nc3cc4cc(-c5cnn(C)c5)ccc4cn3)ccn2)CC1, the viability, T/C was 69.3%.

As for `Nc1ccccc1NC(=O)c1ccc(CNC(=O)OCc2cccnc2)cc1` + CN1CCN(c2cc(C(=O)Nc3cc4cc(-c5cnn(C)c5)ccc4cn3)ccn2)CC1, the viability, T/C was 27.7%.

`Nc1ccn(C2OC(CO)C(O)C2(F)F)c(=O)n1` (centres undefined) + CNC(=O)c1ccc(Nc2nc(OC3CCCC3)c3c(-c4ccc5nc(C)oc5c4)c[nH]c3n2)c(OC)c1: the viability, T/C is 51.8%.

Consider `O=C(c1cc(Cc2n[nH]c(=O)c3ccccc23)ccc1F)N1CCN(C(=O)C2CC2)CC1` + CN1CCN(c2cc(C(=O)Nc3cc4cc(-c5cnn(C)c5)ccc4cn3)ccn2)CC1, for which the viability, T/C is 46.5%.

Still in this test, the particulars now being: second compound 0.1 µM; first compound 0.0316 µM; active compounds read low.
On to `O=c1[nH]cc(F)c(=O)[nH]1` + CN1CCN(c2cc(C(=O)Nc3cc4cc(-c5cnn(C)c5)ccc4cn3)ccn2)CC1, for which the viability, T/C is 64.1%.

As to `Nc1ccccc1NC(=O)c1ccc(CNC(=O)OCc2cccnc2)cc1` + CN1CCN(c2cc(C(=O)Nc3cc4cc(-c5cnn(C)c5)ccc4cn3)ccn2)CC1, the viability, T/C was 54.7%.

In the case of `Nc1ccn(C2OC(CO)C(O)C2(F)F)c(=O)n1` (centres undefined) + CNC(=O)c1ccc(Nc2nc(OC3CCCC3)c3c(-c4ccc5nc(C)oc5c4)c[nH]c3n2)c(OC)c1, the viability, T/C is 53.1%.

For `O=C(c1cc(Cc2n[nH]c(=O)c3ccccc23)ccc1F)N1CCN(C(=O)C2CC2)CC1` + CN1CCN(c2cc(C(=O)Nc3cc4cc(-c5cnn(C)c5)ccc4cn3)ccn2)CC1, the viability, T/C was 55.8%.

The test is the same for the next values; noted with them: second compound 0.1 µM; first compound 0.1 µM; active compounds read low.
Consider `O=c1[nH]cc(F)c(=O)[nH]1` + CN1CCN(c2cc(C(=O)Nc3cc4cc(-c5cnn(C)c5)ccc4cn3)ccn2)CC1, for which the viability, T/C was 69.9%.

For the molecule `Nc1ccccc1NC(=O)c1ccc(CNC(=O)OCc2cccnc2)cc1` + CN1CCN(c2cc(C(=O)Nc3cc4cc(-c5cnn(C)c5)ccc4cn3)ccn2)CC1, the viability, T/C was 63%.

Turning to `Nc1ccn(C2OC(CO)C(O)C2(F)F)c(=O)n1` (centres undefined) + CNC(=O)c1ccc(Nc2nc(OC3CCCC3)c3c(-c4ccc5nc(C)oc5c4)c[nH]c3n2)c(OC)c1, the viability, T/C was 52.3%.

In the case of `O=C(c1cc(Cc2n[nH]c(=O)c3ccccc23)ccc1F)N1CCN(C(=O)C2CC2)CC1` + CN1CCN(c2cc(C(=O)Nc3cc4cc(-c5cnn(C)c5)ccc4cn3)ccn2)CC1, the viability, T/C is 56.6%.

The test is the same for the next values; noted with them: second compound 0.1 µM; first compound 0.316 µM; active compounds read low.
For the molecule `O=c1[nH]cc(F)c(=O)[nH]1` + CN1CCN(c2cc(C(=O)Nc3cc4cc(-c5cnn(C)c5)ccc4cn3)ccn2)CC1, the viability, T/C is 70.5%.

With `Nc1ccccc1NC(=O)c1ccc(CNC(=O)OCc2cccnc2)cc1` + CN1CCN(c2cc(C(=O)Nc3cc4cc(-c5cnn(C)c5)ccc4cn3)ccn2)CC1, the viability, T/C is 76.5%.

Consider `Nc1ccn(C2OC(CO)C(O)C2(F)F)c(=O)n1` (centres undefined) + CNC(=O)c1ccc(Nc2nc(OC3CCCC3)c3c(-c4ccc5nc(C)oc5c4)c[nH]c3n2)c(OC)c1, for which the viability, T/C was 49.5%.

Take `O=C(c1cc(Cc2n[nH]c(=O)c3ccccc23)ccc1F)N1CCN(C(=O)C2CC2)CC1` + CN1CCN(c2cc(C(=O)Nc3cc4cc(-c5cnn(C)c5)ccc4cn3)ccn2)CC1: the viability, T/C is 61.9%.

Still in this test, the particulars now being: second compound 0.1 µM; first compound 1 µM; active compounds read low.
As to `O=c1[nH]cc(F)c(=O)[nH]1` + CN1CCN(c2cc(C(=O)Nc3cc4cc(-c5cnn(C)c5)ccc4cn3)ccn2)CC1, the viability, T/C was 71.6%.

In the case of `Nc1ccccc1NC(=O)c1ccc(CNC(=O)OCc2cccnc2)cc1` + CN1CCN(c2cc(C(=O)Nc3cc4cc(-c5cnn(C)c5)ccc4cn3)ccn2)CC1, the viability, T/C was 90.9%.

As for `Nc1ccn(C2OC(CO)C(O)C2(F)F)c(=O)n1` (centres undefined) + CNC(=O)c1ccc(Nc2nc(OC3CCCC3)c3c(-c4ccc5nc(C)oc5c4)c[nH]c3n2)c(OC)c1, the viability, T/C was 43.9%.

On to `O=C(c1cc(Cc2n[nH]c(=O)c3ccccc23)ccc1F)N1CCN(C(=O)C2CC2)CC1` + CN1CCN(c2cc(C(=O)Nc3cc4cc(-c5cnn(C)c5)ccc4cn3)ccn2)CC1, for which the viability, T/C was 49.8%.

Staying with this test, now noted: second compound 0.1 µM; first compound 3.16 µM; active compounds read low.
On to `O=c1[nH]cc(F)c(=O)[nH]1` + CN1CCN(c2cc(C(=O)Nc3cc4cc(-c5cnn(C)c5)ccc4cn3)ccn2)CC1, for which the viability, T/C is 64.8%.

As for `Nc1ccccc1NC(=O)c1ccc(CNC(=O)OCc2cccnc2)cc1` + CN1CCN(c2cc(C(=O)Nc3cc4cc(-c5cnn(C)c5)ccc4cn3)ccn2)CC1, the viability, T/C was 91.7%.

For the molecule `Nc1ccn(C2OC(CO)C(O)C2(F)F)c(=O)n1` (centres undefined) + CNC(=O)c1ccc(Nc2nc(OC3CCCC3)c3c(-c4ccc5nc(C)oc5c4)c[nH]c3n2)c(OC)c1, the viability, T/C was 57.2%.

Turning to `O=C(c1cc(Cc2n[nH]c(=O)c3ccccc23)ccc1F)N1CCN(C(=O)C2CC2)CC1` + CN1CCN(c2cc(C(=O)Nc3cc4cc(-c5cnn(C)c5)ccc4cn3)ccn2)CC1, the viability, T/C is 41.5%.

Staying with this test, now noted: second compound 0.1 µM; first compound 10 µM; active compounds read low.
On to `O=c1[nH]cc(F)c(=O)[nH]1` + CN1CCN(c2cc(C(=O)Nc3cc4cc(-c5cnn(C)c5)ccc4cn3)ccn2)CC1, for which the viability, T/C is 54.7%.

As for `Nc1ccccc1NC(=O)c1ccc(CNC(=O)OCc2cccnc2)cc1` + CN1CCN(c2cc(C(=O)Nc3cc4cc(-c5cnn(C)c5)ccc4cn3)ccn2)CC1, the viability, T/C was 4.63%.

Consider `Nc1ccn(C2OC(CO)C(O)C2(F)F)c(=O)n1` (centres undefined) + CNC(=O)c1ccc(Nc2nc(OC3CCCC3)c3c(-c4ccc5nc(C)oc5c4)c[nH]c3n2)c(OC)c1, for which the viability, T/C is 49.3%.

Take `O=C(c1cc(Cc2n[nH]c(=O)c3ccccc23)ccc1F)N1CCN(C(=O)C2CC2)CC1` + CN1CCN(c2cc(C(=O)Nc3cc4cc(-c5cnn(C)c5)ccc4cn3)ccn2)CC1: the viability, T/C was 33.7%.

Staying with this test, now noted: second compound 0.316 µM; first compound 0.0316 µM; active compounds read low.
In the case of `O=c1[nH]cc(F)c(=O)[nH]1` + CN1CCN(c2cc(C(=O)Nc3cc4cc(-c5cnn(C)c5)ccc4cn3)ccn2)CC1, the viability, T/C is 35.7%.

With `Nc1ccccc1NC(=O)c1ccc(CNC(=O)OCc2cccnc2)cc1` + CN1CCN(c2cc(C(=O)Nc3cc4cc(-c5cnn(C)c5)ccc4cn3)ccn2)CC1, the viability, T/C is 40.1%.

As to `Nc1ccn(C2OC(CO)C(O)C2(F)F)c(=O)n1` (centres undefined) + CNC(=O)c1ccc(Nc2nc(OC3CCCC3)c3c(-c4ccc5nc(C)oc5c4)c[nH]c3n2)c(OC)c1, the viability, T/C was 49.9%.

For the molecule `O=C(c1cc(Cc2n[nH]c(=O)c3ccccc23)ccc1F)N1CCN(C(=O)C2CC2)CC1` + CN1CCN(c2cc(C(=O)Nc3cc4cc(-c5cnn(C)c5)ccc4cn3)ccn2)CC1, the viability, T/C was 34.6%.

The same test, now with this note: second compound 0.316 µM; first compound 0.1 µM; active compounds read low.
Turning to `O=c1[nH]cc(F)c(=O)[nH]1` + CN1CCN(c2cc(C(=O)Nc3cc4cc(-c5cnn(C)c5)ccc4cn3)ccn2)CC1, the viability, T/C is 30.7%.

For the molecule `Nc1ccccc1NC(=O)c1ccc(CNC(=O)OCc2cccnc2)cc1` + CN1CCN(c2cc(C(=O)Nc3cc4cc(-c5cnn(C)c5)ccc4cn3)ccn2)CC1, the viability, T/C was 30.8%.

For `Nc1ccn(C2OC(CO)C(O)C2(F)F)c(=O)n1` (centres undefined) + CNC(=O)c1ccc(Nc2nc(OC3CCCC3)c3c(-c4ccc5nc(C)oc5c4)c[nH]c3n2)c(OC)c1, the viability, T/C was 50.3%.

Regarding `O=C(c1cc(Cc2n[nH]c(=O)c3ccccc23)ccc1F)N1CCN(C(=O)C2CC2)CC1` + CN1CCN(c2cc(C(=O)Nc3cc4cc(-c5cnn(C)c5)ccc4cn3)ccn2)CC1, the viability, T/C was 33.6%.
